In series [1] the test system is Non-resistant strain (house flies). In words: Chamber screening evaluation of ear tags, % fly mortality, non-resistant strain. It is filed as in vivo. As to conditions: positive control, petri dish 0.05%, 8640 min. The protocol: (§1) The ear tags are hung in a chamber covered with mesh cloth to keep the flies confined in the 12"×17"×9" space. Each chamber contains a cup of water and a supply of sugar and powdered milk.
(§2) At the start of the test, ~100 three to five day old house flies are placed in each chamber. The chambers are kept in a room with the temperature at 82° F. (27.8° C.). The flies are observed daily (except Saturday and Sunday) and mortality is recorded. At the termination of the study, the chambers are placed in a freezer overnight to kill the remaining flies, which are then counted. The percent mortality is calculated based on the number of flies that die during the observation period and the number of flies counted at the end of the study.

The subject of series [2] is Resistant strain (flucythrinate resistant house flies). In words: Chamber screening evaluation of ear tags, % fly mortality, resistant strain. It is filed as in vivo. The following applies: positive control, petri dish 0.05%, 8640 min. As for the experimental part:
as §1, §2

Series [3] has as its system pyrethroid resistant female flies. It is filed as in vivo.
Series [4] in a line: Stability of organophosphates by differential scanning calorimetry (DSC). It is filed as physicochemical. The following applies: for Onset of Decomposition: DSC; for decomposition points as determined by differential scanning calorimetry: below the 160° C. minimum temperatures encountered during extrusion or injection molding. The protocol: The insect control devices of the present invention containing the insecticide in the coating composition may be prepared at much lower temperatures, as low as about 20° C. The greatly-reduced processing temperatures allow the incorporation of active ingredients which are thermally unstable at elevated temperature. Examples of insecticides which may now be incorporated in such devices are dimethoate, dibrom, and chlorfenvinphos, illustrated in Table I. The decomposition points of these insecticides, as determined by differential scanning calorimetry (DSC), is below the 160° C. minimum temperatures encountered during extrusion or injection molding of plasticized PVC, and as such, these compounds can now be effectively incorporated in the present devices for control insect pests.
On the technique in general: In DSC, transitions show as peaks or steps in heat flow.

[5] abbreviates: pyrethroid resistant female flies.

The values below come from patent publication US5104659A, “Compositions, devices and method for controlling insects” (priority 1984, dated 1992).

The structures appear in SMILES notation. Read-outs that look alike come from different tables or passages of the source. A value given as a limit tells only on which side of the number the result lay.

`CC(C)[C@H](C(=O)OC(C#N)c1cccc(Oc2ccccc2)c1)c1ccc(OC(F)F)cc1` (mixture of isomers) [flucythrinate, (±)-cyano(3-phenoxyphenyl)methyl (+)-4-(difluoromethoxy-α-(1-methyl-ethyl)benzeneacetate]: the figures for the “% Fly mortality - six days” value in series [1] and in series [2] were 77% and 4%, respectively.

Turning to `Cc1cc(Cl)ccc1N=CN(C)C` [Chlordimeform], the LD50 in series [3] (setting [5]) is > 8.0 Micrograms/pyrethroid resistan.

For the compound `CCOP(=O)(OCC)OC(=CCl)c1ccc(Cl)cc1Cl` [Chlorfenvinphos, 2-Chloro-1-(2,4-dichlorophenyl)-vinyl diethyl phosphate], in series [4], the “Onset of Decomposition” value stood at 157 °C and the “decomposition points as determined by differential scanning calorimetry” value was below 160 °C. In addition, the LD50 in series [3] (setting [5]) is listed as 0.1869-0.2626 Micrograms/pyrethroid resistan. For the compound `CCOP(=S)(OCC)Oc1nc(Cl)c(Cl)cc1Cl` [Chlorpyrifos], the LD50 in series [3] (setting [5]) was 0.3144-1.486 Micrograms/pyrethroid resistan.

With `CCOP(=S)(OCC)Oc1cc(C)nc(C(C)C)n1` [Diazinon], the LD50 in series [3] (in vivo) is 4.0626-6.2101. In the case of `COP(=O)(OC)OC(Br)C(Cl)(Cl)Br` (centres unmarked) [Dibrom, 1,2-Dibromo-2,2-dichloroethyl dimethyl phosphate], in series [4], the “Onset of Decomposition” value was determined as 103 °C and the “decomposition points as determined by differential scanning calorimetry” value is below 160 °C.

With `COP(=S)(OC)Oc1ccc([N+](=O)[O-])cc1Cl` [Dicapthon], in series [3] (setting [5]), the LD50 is listed as 0.2649-0.6539 Micrograms/pyrethroid resistan. `CNC(=O)CSP(=S)(OC)OC` [Dimethoate, O,O-dimethyl S-(N-methylcarbamoyl-methyl)phosphorodithioate]: in series [4], the “Onset of Decomposition” value was 105 °C and the “decomposition points as determined by differential scanning calorimetry” value is below 160 °C. As for `O=S1OCC2C(CO1)C1(Cl)C(Cl)=C(Cl)C2(Cl)C1(Cl)Cl` (centres unmarked) [Endosulfan], in series [3] (setting [5]), the LD50 was 0.3518-0.5009 Micrograms/pyrethroid resistan. On to `COP(=S)(OC)Oc1ccc(S(=O)(=O)N(C)C)cc1` [Famphur], for which the LD50 in series [3] (in vivo) is recorded as 0.1359-8.448. For the compound `CCOC(=O)CC(SP(=S)(OC)OC)C(=O)OCC` (centres unmarked) [Malathion], the LD50 in series [3] (setting [5]) was 4.4757-6.9321 Micrograms/pyrethroid resistan.

For the compound `CNC(=O)ON=C(C)SC` [Methomyl], the LD50 in series [3] (setting [5]) is on record as 0.5027-0.6807 Micrograms/pyrethroid resistan. Turning to `CCCCOCCOCCOCc1cc2c(cc1CCC)OCO2` [Piperonyl butoxide], the LD50 in series [3] (in vivo) is 2.725-3.7726. Take `COP(=S)(OC)Oc1ccc(Sc2ccc(OP(=S)(OC)OC)cc2)cc1` [Temephos]: the “Onset of Decomposition” value in series [4] turned out to be 142 °C.

Turning to `COP(=O)(OC)O/C(=C\Cl)c1cc(Cl)c(Cl)cc1Cl` [Tetrachlorvinphos], the “Onset of Decomposition” value in series [4] is 190 °C.
